This passage reports caspase activation (% of PBS control) results from the OligoGym collection.

The data set addresses HIF1A. Put plainly: HeLa, 100 nM transfected, 24 h, mean of 3. As to conditions: ASO.

Bases are written 5' to 3'; sugars and linkages follow in the same order, as letters with counts (s phosphorothioate, o phosphodiester; PS: all linkages phosphorothioate). C may stand for cytosine or 5-methylcytosine; the collection does not tell. l = locked nucleic acid (LNA); d = 2'-deoxy (DNA)

On to “TACTGCCTTCTTA (sugars l1 d2 l1 d8 l1, PS)”, for which the caspase activation (% of PBS control) amounted to 118.
For the sequence “GTTACTGCCTTCTTAC (sugars ldlddddddddllldl, PS)”, the caspase activation (% of PBS control) turned out to be 271.
Under “TGGCAAGCATCCTGTA (sugars lddllddddddllddl, PS)” stands 388.
On to “GTTACTGCCTTCTTAC (sugars ldlddddddddllddl, PS)”, for which the caspase activation (% of PBS control) worked out at 158.
The sequence “GTTACTGCCTTCTTAC (sugars lddllddddddddldl, PS)” yielded a caspase activation (% of PBS control) of 246.
In the case of “GTTACTGCCTTCTTAC (sugars ldlllddddddllddl, PS)”, the caspase activation (% of PBS control) worked out at 499.
“TGGCAAGCATCCTGTA (sugars lldllddddddldddl, PS)” yielded a caspase activation (% of PBS control) of 385.
As for “GTTACTGCCTTCT (sugars l2 d1 l1 d8 l1, PS)”, the caspase activation (% of PBS control) was found to be 133.
For “GTTACTGCCTTCTTAC (sugars llldlddddddldlll, PS)”, the caspase activation (% of PBS control) was 273.
Take “GTTACTGCCTTCTTAC (sugars lldlldddddddlddl, PS)”: the caspase activation (% of PBS control) turned out to be 278.
On to TACTGCCTTCTTA (sugars l2 d8 l3, PS), for which the caspase activation (% of PBS control) is 363.
Under “TGGCAAGCATCCTGTA (sugars l2 d11 l1 d1 l1, PS)” stands 369.
Under “TGGCAAGCATCCTGTA (sugars l4 d7 l1 d1 l3, PS)” stands 522.
“TGGCAAGCATCCT (sugars l1 d1 l1 d9 l1, PS)” showed a caspase activation (% of PBS control) of 160.
Regarding “TGGCAAGCATCCTGTA (sugars lldlldddddddlddl, PS)”, the caspase activation (% of PBS control) stood at 459.
Turning to “TGGCAAGCATCCTGTA (sugars l5 d6 l1 d1 l3, PS)”, the caspase activation (% of PBS control) came to 443.
On to “GTTACTGCCTTCTTAC (sugars lldlddddddddlldl, PS)”, for which the caspase activation (% of PBS control) stood at 187.
With “ACTGCCTTCTTAC (sugars ldllddddddldl, PS)”, the caspase activation (% of PBS control) came out at 217.
As to “TGGCAAGCATCCTGTA (sugars ldlllddddddlldll, PS)”, the caspase activation (% of PBS control) came out at 437.
Under ACTGCCTTCTTAC (sugars l2 d9 l2, PS) stands 167; under GCAAGCATCCTGT (sugars l1 d11 l1, PS), 137.
In turn, “TTACTGCCTTCTT (sugars lldlddddddldl, PS)” gave a caspase activation (% of PBS control) of 222.
Sequence TTACTGCCTTCTT (sugars l2 d10 l1, PS) displayed a caspase activation (% of PBS control) of 158.
“CAAGCATCCTGTA (sugars l1 d1 l1 d7 l3, PS)” yielded a caspase activation (% of PBS control) of 198.
Turning to GGCAAGCATCCTG (sugars l4 d8 l1, PS), the caspase activation (% of PBS control) amounted to 604.
For the sequence TTACTGCCTTCTT (sugars l3 d9 l1, PS), the caspase activation (% of PBS control) is 128.
The sequence “TGGCAAGCATCCTGTA (sugars l1 d2 l2 d6 l5, PS)” displayed a caspase activation (% of PBS control) of 366.
Consider “GTTACTGCCTTCTTAC (sugars lddlddddddddldll, PS)”, for which the caspase activation (% of PBS control) came to 130.
Sequence “TGGCAAGCATCCTGTA (sugars lddllddddddlddll, PS)” returned a caspase activation (% of PBS control) of 257.
The sequence “GTTACTGCCTTCTTAC (sugars ldllldddddddldll, PS)” showed a caspase activation (% of PBS control) of 387.
“TGGCAAGCATCCTGTA (sugars l3 d8 l1 d1 l3, PS)”: the caspase activation (% of PBS control) was found to be 477.
With “GCAAGCATCCTGT (sugars l1 d9 l1 d1 l1, PS)”, the caspase activation (% of PBS control) is 124.
Under “GCAAGCATCCTGT (sugars lldlddddddldl, PS)” stands 209; under “GTTACTGCCTTCT (sugars lddlddddddldl, PS)”, 110; under “TGGCAAGCATCCTGTA (sugars llldlddddddldldl, PS)”, 350.
In the case of “TGGCAAGCATCCTGTA (sugars lldllddddddldlll, PS)”, the caspase activation (% of PBS control) worked out at 438.
Consider “TGGCAAGCATCCTGTA (sugars l1 d1 l3 d10 l1, PS)”, for which the caspase activation (% of PBS control) is 595.
Under “TGGCAAGCATCCTGTA (sugars l4 d9 l1 d1 l1, PS)” stands 425; under “GTTACTGCCTTCTTAC (sugars ldddlddddddldddl, PS)”, 137; under “TGGCAAGCATCCTGTA (sugars l2 d10 l2 d1 l1, PS)”, 366.
Sequence GTTACTGCCTTCTTAC (sugars l3 d8 l5, PS) showed a caspase activation (% of PBS control) of 379.
“TGGCAAGCATCCTGTA (sugars l1 d1 l2 d9 l3, PS)” showed a caspase activation (% of PBS control) of 479.
“GTTACTGCCTTCTTAC (sugars ldlllddddddldddl, PS)”: the caspase activation (% of PBS control) was 453.
Regarding “TGGCAAGCATCCTGTA (sugars lldlddddddddldll, PS)”, the caspase activation (% of PBS control) amounted to 502.
“CAAGCATCCTGTA (sugars lldlddddddldl, PS)” yielded a caspase activation (% of PBS control) of 142.
Turning to TGGCAAGCATCCTGTA (sugars l2 d9 l5, PS), the caspase activation (% of PBS control) stood at 368.
Sequence “GTTACTGCCTTCTTAC (sugars l4 d7 l3 d1 l1, PS)” gave a caspase activation (% of PBS control) of 444.
Consider “GTTACTGCCTTCTTAC (sugars lldldddddddldlll, PS)”, for which the caspase activation (% of PBS control) came to 170.
Sequence “TGGCAAGCATCCTGTA (sugars lddllddddddddldl, PS)” registered a caspase activation (% of PBS control) of 397.
As to GGCAAGCATCCTG (sugars l3 d7 l3, PS), the caspase activation (% of PBS control) came to 632.
“TGGCAAGCATCCTGTA (sugars l4 d7 l3 d1 l1, PS)” yielded a caspase activation (% of PBS control) of 575.
In turn, “GTTACTGCCTTCTTAC (sugars lddldddddddlldll, PS)” showed a caspase activation (% of PBS control) of 151.
Under “GGCAAGCATCCTG (sugars l4 d6 l1 d1 l1, PS)” stands 607.
Under “CAAGCATCCTGTA (sugars l1 d2 l1 d6 l3, PS)” stands 97; under “GTTACTGCCTTCTTAC (sugars l2 d9 l1 d1 l3, PS)”, 157; under TGGCAAGCATCCTGTA (sugars l2 d13 l1, PS), 489.
In turn, “TGGCAAGCATCCTGTA (sugars lldllddddddlldll, PS)” had a caspase activation (% of PBS control) of 493.
In the case of “GTTACTGCCTTCTTAC (sugars lldllddddddlddll, PS)”, the caspase activation (% of PBS control) was 261.
In turn, “TGGCAAGCATCCTGTA (sugars l2 d1 l1 d10 l2, PS)” came in with a caspase activation (% of PBS control) of 501.
In turn, “TGGCAAGCATCCT (sugars l1 d1 l2 d7 l2, PS)” registered a caspase activation (% of PBS control) of 353.
Under “GTTACTGCCTTCTTAC (sugars ldllddddddddlldl, PS)” stands 192; under “GTTACTGCCTTCTTAC (sugars ldddldddddddlddl, PS)”, 142.
As for “GTTACTGCCTTCTTAC (sugars ldldlddddddddddl, PS)”, the caspase activation (% of PBS control) is 175.
Sequence “GCAAGCATCCTGT (sugars l2 d1 l1 d6 l3, PS)” displayed a caspase activation (% of PBS control) of 267.
The sequence GTTACTGCCTTCTTAC (sugars l3 d12 l1, PS) returned a caspase activation (% of PBS control) of 127.
“TGGCAAGCATCCTGTA (sugars llddlddddddddldl, PS)” gave a caspase activation (% of PBS control) of 215.
For “GGCAAGCATCCTG (sugars l1 d2 l1 d6 l3, PS)”, the caspase activation (% of PBS control) was found to be 397.
Under “GTTACTGCCTTCTTAC (sugars lddldddddddllddl, PS)” stands 135; under “TGGCAAGCATCCTGTA (sugars l1 d10 l2 d2 l1, PS)”, 346.
With “TACTGCCTTCTTA (sugars l1 d1 l2 d7 l2, PS)”, the caspase activation (% of PBS control) was determined as 448.
Turning to “TGGCAAGCATCCTGTA (sugars l3 d8 l1 d3 l1, PS)”, the caspase activation (% of PBS control) stood at 230.
“GTTACTGCCTTCTTAC (sugars l1 d1 l2 d10 l2, PS)” gave a caspase activation (% of PBS control) of 130.
Sequence “GTTACTGCCTTCTTAC (sugars ldlldddddddddldl, PS)” displayed a caspase activation (% of PBS control) of 142.
“GTTACTGCCTTCT (sugars l4 d6 l1 d1 l1, PS)” returned a caspase activation (% of PBS control) of 221.
“GTTACTGCCTTCTTAC (sugars ldlllddddddddldl, PS)” returned a caspase activation (% of PBS control) of 438.
“TACTGCCTTCTTA (sugars l3 d7 l1 d1 l1, PS)” yielded a caspase activation (% of PBS control) of 368.
In the case of “TGGCAAGCATCCTGTA (sugars ldlddddddddllddl, PS)”, the caspase activation (% of PBS control) is 197.
“GTTACTGCCTTCTTAC (sugars ldddlddddddldldl, PS)”: the caspase activation (% of PBS control) came to 161.
As to “GTTACTGCCTTCTTAC (sugars lllddddddddldldl, PS)”, the caspase activation (% of PBS control) stood at 233.
On to “GTTACTGCCTTCTTAC (sugars llldlddddddlldll, PS)”, for which the caspase activation (% of PBS control) is 307.
Turning to “TGGCAAGCATCCTGTA (sugars ldlddddddddlddll, PS)”, the caspase activation (% of PBS control) turned out to be 218.
Under “GTTACTGCCTTCTTAC (sugars llddlddddddlldll, PS)” stands 208; under “GTTACTGCCTTCTTAC (sugars lddldddddddldddl, PS)”, 88.6.
As to “GTTACTGCCTTCTTAC (sugars l1 d2 l1 d8 l4, PS)”, the caspase activation (% of PBS control) was found to be 175.
The sequence TGGCAAGCATCCT (sugars l3 d7 l3, PS) displayed a caspase activation (% of PBS control) of 249.
In the case of “GTTACTGCCTTCTTAC (sugars lldllddddddddldl, PS)”, the caspase activation (% of PBS control) came out at 291.
“GTTACTGCCTTCTTAC (sugars lldldddddddldddl, PS)” gave a caspase activation (% of PBS control) of 155.
Under “GCAAGCATCCTGT (sugars l4 d6 l1 d1 l1, PS)” stands 305.
